Experimental data published in patent publication US4803197A, “2,1-benzothiazepine-2,2-dioxide-5-carboxylic acid derivatives” (Ciba-Geigy Corporation, priority 1987, dated 1989).

Legend:
[1] = tested on: accumulation of neutrophils; experiment: accumulation of neutrophils into carrageenin-impregnated polyurethane sponges in the rat; assay type: in vivo; details: 25 mg/Kg p.o.
From the text: The inhibition of the chemotactic activation of neutrophils can also be determined in vivo by measuring the inhibition of the accumulation of neutrophils into carrageenin impregnated polyurethane sponges after oral administration in the rat.

[2] = tested on: carrageenin pleurisy; experiment: carrageenin-induced pleurisy model of inflammation in the rat; assay type: in vivo; details: 10 mg/Kg p.o.
Description: Antiinflammatory activity is determined by measuring the inhibition of the edema and of the mononuclear cell influx after oral administration in the rat model in which pleurisy is first induced by injecting carrageenin into the pleural cavity, e.g. according to A. P. Almeida et al., J. Pharmacol. Exp. Therap. 214, 74 (1980).

[3] = tested on: leukotriene and 5-HETE formation; experiment: leukotriene and 5-HETE formation in whole blood after oral administration in rats; assay type: in vivo; details: 50 mg/Kg p.o.
Description: Furthermore inhibition of the formation of leukotrienes and 5-HETE is determined e.g. by measuring their concentration in whole blood after oral administration in rats.

[4] = tested on: bovine nasal cartilage; experiment: bovine nasal cartilage-synovium co-culture model of cartilage matrix degradation; assay type: cell-based; details: at a concentration of about 1×10^-5 M
Description: The inhibition of cartilage matrix degradation can be determined in vitro in the bovine nasal cartilage-synovium co-culture model of cartilage matrix degradation which is carried out as follows:
The proteoglycan matrix of bovine nasal septum cartilage is labeled in vitro by incorporation of ^35 S into glycosaminoglycan. Cartilage slices are incubated overnight in a sulfate free medium containing ^35 S-sodium sulfate. ^35 S-Labeled cartilage slices are co-cultured with normal synovium explants in multiwell tissue culture plates. After 4 days incubation a 100μl aliquot of medium is counted. Cartilage slices are hydrolyzed and a 100μl aliquot of cartilage hydrolysate is counted. The percent ^35 S released into the medium is determined and the percent inhibition of matrix degradation is calculated.

[5] = tested on: human neutrophils; experiment: inhibition of binding of f-MLP to human neutrophils in vitro; details: at a concentration of about 1×10^-6 M; sodium salt
Description: The inhibition of the chemotactic activation of neutrophils is determined in vitro, e.g. by measuring the inhibition of the binding of f-MLP (formyl-methionylleucyl-phenylalanine) to human neutrophils in vitro as follows:
Human neutrophils are isolated by a modification of the procedure of Ferrante and Thong (J. Immunol. Methods 24:389, 1978). Red cells remaining in the neutrophil preparation are lysed by separate treatments with 0.83% NH4 Cl and 0.1M tris-HCl, pH 7.5. Neutrophils are incubated in Hanks' buffer at 0° C. for 60 minutes with 15 nM ^3 H-f-MLP and test compound. Aliquots of the incubates are filtered and total ^3 H-f-MLP bound is measured. Non-specific binding in the presence of excess non-radioactive f-MLP is substracted, and percent inhibition of binding by the test drug is calculated. Final concentrations of solvents such as dimethylacetamide or ethanol which may be used to dissolve the test compound cannot exceed 1% in the incubation mixture.

[6] = tested on: bovine nasal cartilage; experiment: synovial catabolin-induced degradation of bovine nasal cartilage; assay type: cell-based; details: at a concentration of about 1×10^-5 M
From the text: The inhibition of cartilage matrix degradation can also be similarly determined by measuring the decrease in proteoglycan release on synovial catabolin-induced degradation of bovine nasal cartilage.

## O=C(Nc1ccc(Cl)cc1)C1=C(O)CS(=O)(=O)N(Cc2ccc(Cl)cc2)c2ccccc21.[Na] [Example 2, N-(4-chlorophenyl)-1-(4-chlorophenylmethyl)-1,3-dihydro-4-hydroxy-2,1-benzothiazepine-5-carboxamide-2,2-dioxide sodium salt]
[1]
  accumulation of neutrophils into carrageenin-impregnated sponges: effectively diminishes
[2]
  inhibition of edema formation in the pleurisy model of inflammation: significantly inhibits
  inhibition of mononuclear cell influx in the pleurisy model of inflammation: significantly inhibits
[3]
  inhibition of 5-HETE formation in whole rat blood: effectively inhibits
  inhibition of leukotriene formation in whole rat blood: effectively inhibits
[4]
  inhibition of release of proteoglycan in synovium-induced degradation of cartilage: inhibits
[5]
  inhibition of the binding of f-MLP to human neutrophils: effective in inhibiting
[6]
  inhibition of release of proteoglycan in catabolin-induced degradation of cartilage: inhibits
